Laboratory results: ChEMBL document CHEMBL1201861, “Genomics of Drug Sensitity in Cancer screening data, Wellcome Trust Sanger Institute”

Columns and labels:
Assay in all cases: cells
CP66-MEL = format: functional, cell-based, Homo sapiens; conditions: Homo sapiens, CP66-MEL;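 further: growth inhibition of CP66-MEL cells determined in a cell viability assay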
Description: SANGER: Inhibition of human CP66-MEL cell growth in a cell viability assay.

D-263MG = format: functional, cell-based, Homo sapiens; conditions: Homo sapiens, D-263MG
Description: SANGER: Inhibition of human D-263MG cell growth in a cell viability assay.

DU-4475 = format: functional, cell-based, Homo sapiens; conditions: Homo sapiens, DU-4475
Description: SANGER: Inhibition of human DU-4475 cell growth in a cell viability assay.

EM-2 = format: functional, cell-based, Homo sapiens; conditions: Homo sapiens, EM-2;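 further: growth inhibition of EM-2 cells, read out with a cell viability assay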
Description: SANGER: Inhibition of human EM-2 cell growth in a cell viability assay.

GI-ME-N = format: functional, cell-based, Homo sapiens; conditions: Homo sapiens, GI-ME-N;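 further: growth inhibition of human GI-ME-N cells, read out with a cell viability assay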
Description: SANGER: Inhibition of human GI-ME-N cell growth in a cell viability assay.

HDLM-2 = format: functional, cell-based, Homo sapiens; conditions: Homo sapiens, HDLM-2;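 further: cell viability assay measuring suppression of HDLM-2 proliferation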
Description: SANGER: Inhibition of human HDLM-2 cell growth in a cell viability assay.

HuTu80 = format: functional, cell-based, Homo sapiens, HUTU-80; conditions: Homo sapiens, HuTu80;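 further: growth inhibition of HuTu80 human cells, determined with a cell viability readout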
Description: SANGER: Inhibition of human HUTU-80 cell growth in a cell viability assay.

JVM-2 = format: functional, cell-based, Homo sapiens; conditions: Homo sapiens, JVM-2;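 further: growth inhibition of JVM-2 cells determined by a cell viability assay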
Description: SANGER: Inhibition of human JVM-2 cell growth in a cell viability assay.

KARPAS-299 = format: functional, cell-based, Homo sapiens; conditions: Homo sapiens, KARPAS-299
Description: SANGER: Inhibition of human KARPAS-299 cell growth in a cell viability assay.

KS-1 = format: functional, cell-based, Homo sapiens; conditions: Homo sapiens, KS-1;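 further: growth inhibition of KS-1 cells, read out with a cell viability assay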
Description: SANGER: Inhibition of human KS-1 cell growth in a cell viability assay.

LB2241-RCC = format: functional, cell-based, Homo sapiens; conditions: Homo sapiens, LB2241-RCC;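 further: cell viability assay measuring how strongly the cultured human renal carcinoma line is prevented from growing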
Description: SANGER: Inhibition of human LB2241-RCC cell growth in a cell viability assay.

LB831-BLC = format: functional, cell-based, Homo sapiens; conditions: Homo sapiens, LB831-BLC;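 further: growth inhibition of LB831-BLC cells, read out with a cell viability assay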
Description: SANGER: Inhibition of human LB831-BLC cell growth in a cell viability assay.

LB996-RCC = format: functional, cell-based, Homo sapiens; conditions: Homo sapiens, LB996-RCC
Description: SANGER: Inhibition of human LB996-RCC cell growth in a cell viability assay.

MEG-01 = format: functional, cell-based, Homo sapiens; conditions: Homo sapiens, MEG-01;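 further: growth inhibition of MEG-01 cells, read out by a cell viability assay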
Description: SANGER: Inhibition of human MEG-01 cell growth in a cell viability assay.

MHH-PREB-1 = format: functional, cell-based, Homo sapiens; conditions: Homo sapiens, MHH-PREB-1;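 further: cell viability assay measuring inhibition of proliferation of human MHH-PREB-1 cells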
Description: SANGER: Inhibition of human MHH-PREB-1 cell growth in a cell viability assay.

MOLT-4 = format: functional, cell-based, Homo sapiens; conditions: Homo sapiens, MOLT-4;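 further: growth inhibition of MOLT-4 cells, determined with a cell viability readout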
Description: SANGER: Inhibition of human MOLT-4 cell growth in a cell viability assay.

MSTO-211H = format: functional, cell-based, Homo sapiens; conditions: Homo sapiens, MSTO-211H
Description: SANGER: Inhibition of human MSTO-211H cell growth in a cell viability assay.

MV4-11 = format: functional, cell-based, Homo sapiens, MV-4-11; conditions: Homo sapiens, MV4-11;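 further: cell viability readout measuring growth inhibition of human MV-4-11 cells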
Description: SANGER: Inhibition of human MV-4-11 cell growth in a cell viability assay.

MZ7-mel = format: functional, cell-based, Homo sapiens; conditions: Homo sapiens, MZ7-mel;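 further: growth inhibition of human MZ7-mel cells, measured by a cell viability assay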
Description: SANGER: Inhibition of human MZ7-mel cell growth in a cell viability assay.

NB12 = format: functional, cell-based, Homo sapiens; conditions: Homo sapiens, NB12;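 further: growth inhibition of human NB12 cells, read out by a cell viability assay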
Description: SANGER: Inhibition of human NB12 cell growth in a cell viability assay.

NCI-H1155 = format: functional, cell-based, Homo sapiens; conditions: Homo sapiens, NCI-H1155;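 further: cell growth inhibition measured by a viability assay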
Description: SANGER: Inhibition of human NCI-H1155 cell growth in a cell viability assay.

NCI-H1304 = format: functional, cell-based, Homo sapiens; conditions: Homo sapiens, NCI-H1304;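 further: growth inhibition of the cancer cell line, measured in a cell viability assay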
Description: SANGER: Inhibition of human NCI-H1304 cell growth in a cell viability assay.

NCI-H1395 = format: functional, cell-based, Homo sapiens; conditions: Homo sapiens, NCI-H1395;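 further: cell viability assay read-out quantifying reduced proliferation of human NCI-H1395 cells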
Description: SANGER: Inhibition of human NCI-H1395 cell growth in a cell viability assay.

SNU-5 = format: functional, cell-based, Homo sapiens; conditions: Homo sapiens, SNU-5;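 further: cell viability readout used to measure growth inhibition in human NCI-SNU-5 cells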
Description: SANGER: Inhibition of human NCI-SNU-5 cell growth in a cell viability assay.

NKM-1 = format: functional, cell-based, Homo sapiens; conditions: Homo sapiens, NKM-1;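 further: growth inhibition of NKM-1 cells, read out with a cell viability assay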
Description: SANGER: Inhibition of human NKM-1 cell growth in a cell viability assay.

NMC-G1 = format: functional, cell-based, Homo sapiens; conditions: Homo sapiens, NMC-G1;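 further: growth inhibition of the NMC-G1 cell line, measured with a cell viability read-out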
Description: SANGER: Inhibition of human NMC-G1 cell growth in a cell viability assay.

NOS-1 = format: functional, cell-based, Homo sapiens; conditions: Homo sapiens, NOS-1;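 further: growth inhibition of the human NOS-1 cell line, read out with a cell viability assay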
Description: SANGER: Inhibition of human NOS-1 cell growth in a cell viability assay.

NTERA-2-cl-D1 = format: functional, cell-based, Homo sapiens; conditions: Homo sapiens, NTERA-2-cl-D1;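 further: inhibition of cell growth, measured with a cell viability assay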
Description: SANGER: Inhibition of human NTERA-S-cl-D1 cell growth in a cell viability assay.

OCI-AML2 = format: functional, cell-based, Homo sapiens; conditions: Homo sapiens, OCI-AML2;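 further: growth inhibition of OCI-AML2 cells, read out with a cell viability assay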
Description: SANGER: Inhibition of human OCI-AML2 cell growth in a cell viability assay.

RS4-11 = format: functional, cell-based, Homo sapiens; conditions: Homo sapiens, RS4-11;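 further: growth inhibition of RS4-11 cells, read out by a cell viability assay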
Description: SANGER: Inhibition of human RS4-11 cell growth in a cell viability assay.

SH-4 = format: functional, cell-based, Homo sapiens; conditions: Homo sapiens, SH-4;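 further: growth inhibition of SH-4 cells, read out with a cell viability assay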
Description: SANGER: Inhibition of human SH-4 cell growth in a cell viability assay.

SK-N-DZ = format: functional, cell-based, Homo sapiens; conditions: Homo sapiens, SK-N-DZ;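 further: growth inhibition of the cancer cell line, read out through a viability assay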
Description: SANGER: Inhibition of human SK-N-DZ cell growth in a cell viability assay.

SK-NEP-1 = format: functional, cell-based, Homo sapiens; conditions: Homo sapiens, SK-NEP-1;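 further: growth inhibition of human SK-NEP-1 cells, read out by a cell viability assay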
Description: SANGER: Inhibition of human SK-NEP-1 cell growth in a cell viability assay.

SW 954 = format: functional, cell-based, Homo sapiens; conditions: Homo sapiens, SW 954;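 further: growth inhibition of SW954 human cancer cells, read out as cell viability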
Description: SANGER: Inhibition of human SW954 cell growth in a cell viability assay.

SW 962 = format: functional, cell-based, Homo sapiens; conditions: Homo sapiens, SW 962;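 further: growth inhibition of human SW962 cells, read out by a cell viability assay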
Description: SANGER: Inhibition of human SW962 cell growth in a cell viability assay.

TE-1 = format: functional, cell-based, Homo sapiens; conditions: Homo sapiens, TE-1;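 further: growth inhibition of the human TE-1 cell line, read out with a cell viability assay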
Description: SANGER: Inhibition of human TE-1 cell growth in a cell viability assay.

697 = format: functional, cell-based, Homo sapiens; conditions: Homo sapiens
Description: SANGER: Inhibition of human 697 cell growth in a cell viability assay.

ACN = format: functional, cell-based, Homo sapiens; conditions: Homo sapiens, ACN;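 further: growth inhibition of the human ACN cell line, read out via cell viability testing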
Description: SANGER: Inhibition of human ACN cell growth in a cell viability assay.

ALL-PO = format: functional, cell-based, Homo sapiens; conditions: Homo sapiens, ALL-PO;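 further: growth inhibition of ALL-PO cells, read out by a cell viability assay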
Description: SANGER: Inhibition of human ALL-PO cell growth in a cell viability assay.

BT-474 = format: functional, cell-based, Homo sapiens; conditions: Homo sapiens, BT-474
Description: SANGER: Inhibition of human BT-474 cell growth in a cell viability assay.

TE-6 = format: functional, cell-based, Homo sapiens; conditions: Homo sapiens, TE-6;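 further: growth inhibition of TE-6 cells, read out with a cell viability assay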
Description: SANGER: Inhibition of human TE-6 cell growth in a cell viability assay.

TE-8 = format: functional, cell-based, Homo sapiens; conditions: Homo sapiens, TE-8;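 further: growth inhibition of TE-8 cells, measured with a cell viability readout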
Description: SANGER: Inhibition of human TE-8 cell growth in a cell viability assay.

TGBC24TKB = format: functional, cell-based, Homo sapiens; conditions: Homo sapiens, TGBC24TKB;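 further: growth inhibition of human TGBC24TKB cells, read out with a cell viability assay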
Description: SANGER: Inhibition of human TGBC24TKB cell growth in a cell viability assay.

UACC-257 = format: functional, cell-based, Homo sapiens; conditions: Homo sapiens, UACC-257
Description: SANGER: Inhibition of human UACC-257 cell growth in a cell viability assay.

VA-ES-BJ = format: functional, cell-based, Homo sapiens; conditions: Homo sapiens, VA-ES-BJ;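 further: growth inhibition of the VA-ES-BJ cell line, read out by a cell viability assay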
Description: SANGER: Inhibition of human VA-ES-BJ cell growth in a cell viability assay.

no-11 = format: functional, cell-based, Homo sapiens; conditions: Homo sapiens;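 further: growth inhibition of human NO-11 cells, read out with a cell viability assay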
Description: SANGER: Inhibition of human no-11 cell growth in a cell viability assay.

CAS-1 = format: functional, cell-based, Homo sapiens; conditions: Homo sapiens, CAS-1;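 further: growth inhibition of CAS-1 cells, measured with a cell viability assay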
Description: SANGER: Inhibition of human CAS-1 cell growth in a cell viability assay.

COLO-684 = format: functional, cell-based, Homo sapiens; conditions: Homo sapiens, COLO-684
Description: SANGER: Inhibition of human COLO-684 cell growth in a cell viability assay.

Cc1cc([N+](=O)[O-])ccc1NS(=O)(=O)c1cc(Cl)ccc1Cl
IC50 (CP66-MEL): 268 nM | IC50 (D-263MG): 10700 nM | IC50 (DU-4475): 7830 nM | IC50 (EM-2): 16300 nM | IC50 (GI-ME-N): 11500 nM | IC50 (HDLM-2): 6710 nM | IC50 (HuTu80): 1150 nM | IC50 (JVM-2): > 32000 nM | IC50 (KARPAS-299): > 32000 nM | IC50 (KS-1): 12600 nM | IC50 (LB2241-RCC): 2610 nM | IC50 (LB831-BLC): 2100 nM | IC50 (LB996-RCC): 14500 nM | IC50 (MEG-01): > 32000 nM | IC50 (MHH-PREB-1): 5950 nM | IC50 (MOLT-4): > 32000 nM | IC50 (MSTO-211H): > 32000 nM | IC50 (MV4-11): 5230 nM | IC50 (MZ7-mel): 3390 nM | IC50 (NB12): 11100 nM | IC50 (NCI-H1155): > 32000 nM | IC50 (NCI-H1304): > 32000 nM | IC50 (NCI-H1395): > 32000 nM | IC50 (SNU-5): > 32000 nM | IC50 (NKM-1): 10200 nM | IC50 (NMC-G1): 9890 nM | IC50 (NOS-1): 2060 nM | IC50 (NTERA-2-cl-D1): 1430 nM | IC50 (OCI-AML2): 2520 nM | IC50 (RS4-11): 13200 nM | IC50 (SH-4): 1380 nM | IC50 (SK-N-DZ): > 32000 nM | IC50 (SK-NEP-1): 19200 nM | IC50 (SW 954): 7260 nM | IC50 (SW 962): 4680 nM | IC50 (TE-1): 7650 nM | IC50 697: > 32000 nM | IC50 (ACN): 3710 nM | IC50 (ALL-PO): 2340 nM | IC50 (BT-474): 4420 nM | IC50 (TE-6): 19200 nM | IC50 (TE-8): 5760 nM | IC50 (TGBC24TKB): 5.2 µM | IC50 (UACC-257): 3840 nM | IC50 (VA-ES-BJ): 1230 nM | IC50 (no-11): 6740 nM | IC50 (CAS-1): 8880 nM | IC50 (COLO-684): 12100 nM

COc1cccc2c1C(=O)c1c(O)c3c(c(O)c1C2=O)C[C@@](O)(C(=O)CO)C[C@@H]3O[C@H]1C[C@H](N)[C@H](O)[C@H](C)O1 [DOXORUBICIN]
IC50 (CP66-MEL): > 1020 nM | IC50 (D-263MG): 306 nM | IC50 (DU-4475): 12.1 nM | IC50 (EM-2): 325 nM | IC50 (GI-ME-N): 93.3 nM | IC50 (HDLM-2): 569 nM | IC50 (HuTu80): 2.12 nM | IC50 (JVM-2): 242 nM | IC50 (KARPAS-299): > 1020 nM | IC50 (KS-1): 3.44 nM | IC50 (LB2241-RCC): 235 nM | IC50 (LB831-BLC): 206 nM | IC50 (LB996-RCC): 78.5 nM | IC50 (MEG-01): 177 nM | IC50 (MHH-PREB-1): 230 nM | IC50 (MOLT-4): 22.9 nM | IC50 (MSTO-211H): > 1020 nM | IC50 (MV4-11): 10 nM | IC50 (MZ7-mel): 113 nM | IC50 (NB12): 277 nM | IC50 (NCI-H1155): 580 nM | IC50 (NCI-H1304): 321 nM | IC50 (NCI-H1395): > 1020 nM | IC50 (SNU-5): 570 nM | IC50 (NKM-1): 29.5 nM | IC50 (NMC-G1): 139 nM | IC50 (NOS-1): 79.1 nM | IC50 (NTERA-2-cl-D1): 1.37 nM | IC50 (OCI-AML2): 45 nM | IC50 (RS4-11): 19.1 nM | IC50 (SH-4): 92.1 nM | IC50 (SK-N-DZ): > 1020 nM | IC50 (SK-NEP-1): 116 nM | IC50 (SW 954): 16.9 nM | IC50 (SW 962): 69.9 nM | IC50 (TE-1): 76.4 nM | IC50 697: 19.1 nM | IC50 (ACN): 31.1 nM | IC50 (ALL-PO): 65 nM | IC50 (BT-474): 779 nM | IC50 (TE-6): 470 nM | IC50 (TE-8): 7.5 nM | IC50 (TGBC24TKB): > 1.02 µM | IC50 (UACC-257): 362 nM | IC50 (VA-ES-BJ): 33.4 nM | IC50 (no-11): 322 nM | IC50 (CAS-1): 238 nM | IC50 (COLO-684): 220 nM

N#Cc1c(O)c2c(-c3ccc(-c4ccccc4O)cc3)csc2[nH]c1=O
IC50 (CP66-MEL): > 1020 nM | IC50 (D-263MG): > 1020 nM | IC50 (DU-4475): > 1020 nM | IC50 (EM-2): 344 nM | IC50 (GI-ME-N): > 1020 nM | IC50 (HDLM-2): 136 nM | IC50 (HuTu80): > 1020 nM | IC50 (JVM-2): > 1020 nM | IC50 (KARPAS-299): 948 nM | IC50 (KS-1): > 1020 nM | IC50 (LB2241-RCC): > 1020 nM | IC50 (LB831-BLC): > 1020 nM | IC50 (LB996-RCC): > 1020 nM | IC50 (MEG-01): 269 nM | IC50 (MHH-PREB-1): 182 nM | IC50 (MOLT-4): 114 nM | IC50 (MSTO-211H): > 1020 nM | IC50 (MV4-11): 22.7 nM | IC50 (MZ7-mel): > 1020 nM | IC50 (NB12): > 1020 nM | IC50 (NCI-H1155): > 1020 nM | IC50 (NCI-H1304): 634 nM | IC50 (NCI-H1395): > 1020 nM | IC50 (SNU-5): 944 nM | IC50 (NKM-1): > 1020 nM | IC50 (NMC-G1): > 1020 nM | IC50 (NOS-1): > 1020 nM | IC50 (NTERA-2-cl-D1): > 1020 nM | IC50 (OCI-AML2): 57.2 nM | IC50 (RS4-11): 85.7 nM | IC50 (SH-4): > 1020 nM | IC50 (SK-N-DZ): 802 nM | IC50 (SK-NEP-1): 185 nM | IC50 (SW 954): > 1020 nM | IC50 (SW 962): > 1020 nM | IC50 (TE-1): > 1020 nM | IC50 697: > 1020 nM | IC50 (ACN): > 1020 nM | IC50 (ALL-PO): 57.9 nM | IC50 (BT-474): 151 nM | IC50 (TE-6): > 1020 nM | IC50 (TE-8): > 1020 nM | IC50 (TGBC24TKB): > 1.02 µM | IC50 (UACC-257): > 1020 nM | IC50 (VA-ES-BJ): > 1020 nM | IC50 (no-11): > 1020 nM | IC50 (CAS-1): 193 nM | IC50 (COLO-684): 303 nM
